Assay results as given in patent US20230114808A1, “THERAPEUTIC RNA FOR PROSTATE CANCER” (BioNTech SE, priority 2019, published 2023).

Legend:
[1] = test system: KLK2, KLK3 (PSA), ACPP (PAP), NKX3-1 or HOXB13; assay: IFN-γ ELISPOT of splenocytes restimulated with peptide pools (Example 3); type: in vivo, A2/DR1 mice; details: 30 μg RNA(Lip) days 1, 8, 15, 22; splenocytes five days after final injection; unpaired t test
Excerpt: IFN-γ ELISPOT analysis of T-cell effectors from the spleen of mice immunized with lipoplex-formulated RNA coding for KLK2(aa 1-261), KLK3(aa 1-261), ACPP(aa 1-418), HOXB13(aa 1-284) or NKX3-1(aa 1-234). Splenocytes obtained five days after the final immunization were re-stimulated with either a peptide pool spanning the respective human protein, P2/P16/P17 peptides or with an irrelevant control peptide CMV pp65(495-504). Dots represent individual animals; horizontal bars indicate the mean±SD of the three animals.
At day 1, day 8, day 15, and day 22 A2/DR1 mice were immunized with 200 μL of a 0.15 mg/mL RNA(Lip) solution which corresponds to 30 μg RNA(Lip).
Splenocytes were obtained from the immunized A2/DR1 mice five days after the final of four RNA(Lip) injections, and in vivo induction ofantigen-specificTcells was determined by ELISPOT analysis. To test for the immunogenicity, isolated splenocytes were re-stimulated with a peptide pool (15 mers, overlapping by 11 amino acids) spanning the respective human proteins, KLK2, KLK3 (PSA), ACPP (PAP), NKX3-1 or HOXB13. […] On all ELISPOT plates, the negative control medium alone induced only a minimal spot count regardless of the animal the splenocytes had been derived from.

[2] = test system: KLK2, PSA (KLK3), PAP (ACPP), HOXB13, and NKX3-1; assay: IFN-γ ELISPOT of splenocytes restimulated with mRNA-electroporated BMDCs after RNA(LIP) vaccination; type: in vivo, A2/DR1 mice; details: RNAs manufactured under GMP-conditions; study will be performed
[3] = test system: KLK2, PSA (KLK3), PAP (ACPP), HOXB13, and NKX3-1; assay: as above; type: in vivo, A2/DR1 mice; details: 30 μg of each antigen RNA complexed with liposomes, IV, four to five vaccinations, R&D-quality RNA
Experimental: FIG. 18: Vaccination with W_pro1 antigen RNAs leads to antigen-specific T-cell responses. Splenocytes of intravenously vaccinated A2/DR1 mice (n=4-5/group) were restimulated for 20 h with BMDCs electroporated with the corresponding mRNAs as indicated. BMDCs electroporated with irrelevant mRNA were used as control (open symbols, grey bars). Effector function was measured using an IFN-γ ELISPOT assay. Symbols indicate mean values of triplicate wells from individual animals. Bars indicate median of all animals per group.
To obtain more information about the in vivo induction of antigen-specific T cells by the prostate specific antigens KLK2, PSA (KLK3), PAP (ACPP), HOXB13, and NKX3-1, RNA(LIP) products were prepared using RNA of R&D quality and liposomes of GMP-like quality. The RNA(LIP) products were injected intravenously into transgenic mice manipulated to express the human leukocyte antigens HLA-A*0201 and -DRB1*01. Using these mice the priming and expansion of T cells specific for HLA-restricted epitopes can be examined in vivo. A2/DR1 mice were vaccinated four to five times by injection of 30 μg of each antigen RNA complexed with liposomes, followed by isolation of spleen cells (5 days after last vaccination). The priming efficiency of the test items was evaluated by IFN-γ ELISPOT assay after restimulation with bone marrow derived dendritic cells (BMDC) electroporated with the respective mRNA or unrelated control mRNA.

[4] = Respiratory safety (plethysmography) within GLP repeated dose toxicity studies (LPT No. 28864, 30283); type: in vivo, mice; details: positive control, 30 mg/kg b.w.
Experimental: Respiratory safety was included in repeated dose toxicity studies in mice using RNA DPs coding for TAAs in compliance with GLP (LPT No. 28864 and 30283, for study design see below). For example, plethysmography was tested in the study with RNA(LIP) (LPT No. 30283) with four animals/sex/group treated either with control buffer, a low and a high dose (5 and 50 μg of RNA formulated with 9 μg and 90 μg of liposomes, respectively). A positive control of animals treated with 30 mg Carbamyl-β-methylcholine chloride (bethanecol)/kg b.w. was also included. Plethysmography was performed one day after the 4th to 7th dosing. The tests included the evaluation of respiratory rate, tidal volume, minute volume, inspiratory time, expiratory time, peak expiratory and inspiratory flow, expiratory time, and airway resistance index.

Row | Molecule | IFN-γ+ spot count vs restimulation with control peptide CMV pp65 [1] | immunogenicity [2] | antigen-specific T-cell responses in vivo [3] | pulmonary parameters (plethysmography) [4]
1 | beta-S-ARCA(D1)-hAg-Kozak-sec-GS-HOXB13-GS-P2P16-GS-MITD-FI-A30L70 [RBL041.1] | statistically higher | comparable to the results from earlier studies | induced antigen-specific T-cell responses | –
2 | beta-S-ARCA(D1)-hAg-Kozak-KLK2-GS-P2P16-GS-MITD-FI-A30L70 [RBL038.1] | statistically higher | comparable to the results from earlier studies | induced antigen-specific T-cell responses | –
3 | beta-S-ARCA(D1)-hAg-Kozak-sec-GS-NKX31-GS-P2P16-GS-MITD-FI-A30L70 [RBL045.1] | – | comparable to the results from earlier studies | induced antigen-specific T-cell responses | –
4 | CC(C[N+](C)(C)C)OC(N)=O.[Cl-] (stereo not drawn) [Carbamyl-β-methylcholine chloride] | – | – | – | expected alterations
5 | beta-S-ARCA(D1)-hAg-Kozak-KLK3-GS-P2P16-GS-MITD-FI-A30L70 [RBL039.1] | – | comparable to the results from earlier studies | induced antigen-specific T-cell responses | –
6 | beta-S-ARCA(D1)-hAg-Kozak-ACPP-GS-P2P16-GS-MITD-FI-A30L70 [RBL040.1] | statistically higher | comparable to the results from earlier studies | induced antigen-specific T-cell responses | –
